# “Also recorded” adds a separate entry of the source.
# Experiments:
# [1] = test system: platelets; test: platelet aggregation; assay type: cell-based, human
# Procedure: FIGS. 7A and 7B depict the effect of N,N,N-trimethylsphingosine (TMS) on platelet aggregation. A 0.45 ml aliquot of human platelet suspension (3-5×10^5 platelets per μl of Tyrode's buffer) was incubated with sphingosine or TMS for 2 minutes. Then platelet aggregation was induced by the addition of either γ-thrombin (FIG. 7A) or adenosine diphosphate (ADP) (FIG. 7B) in 0.05 ml. The degree of aggregation was determined in an aggregometer and the data analyzed with an integrated computer (Kyoto Daiichi Kagaku Co. Ltd.).
# FIG. 8 depicts further the dose response of platelet aggregation by sphingoid. Aggregation of the platelets was induced with 10 nM γ-thrombin.
# Platelets were isolated from platelet-rich plasma (purchased from the Oregon Red Cross, Portland, Oreg. Contaminating erythrocytes were removed by centrifugation (80×g for 10 minutes). Platelets were obtained by centrifugation (300×g for 10 minutes), washed once in Tyrodes's buffer (pH 6.5) containing 22 mM trisodium citrate and 0.35% (w/v) BSA and resuspended in the same buffer to obtain a concentration of 1-2×10^9 platelets/ml. All procedures were performed at room temperature.
# A suspension of platelets (3.5×10^8 /ml) in Tyrode's buffer was preincubated with various inhibitor compounds (H-7 is [1-(5-isoquinolinylsulfonyl)-2-methylpiperazine, a synthetic protein kinase-C inhibitor purchased from Seikagaku America Inc., St. Petersburg, Fla.], calphostin-C [a synthetic protein kinase-C inhibitor obtained from Dr. Saitoh, Kyowa Hakko Co., Ltd., Machida, Tokyo, Japan], sphingosine [purchased from Sigma, St. Louis, Mo.] and dimethylsphingosine and trimethylsphingosine [synthesized according to Igarashi et al., Biochem., 28, 6796, 1989]) followed by addition of thrombin or ADP (both purchased from Sigma). Platelet aggregation was evaluated by transmittance change using an aggregometer (Chrono-log Corp., Havertown, Pa.) equipped with a computer analyzer.
# [2] = water solubility; assay type: physicochemical; details: for appearance of aqueous solution: neutral or physiologic pH
# Description: For comparison purposes those same test cells also are exposed to sphingosine and N,N-dimethylsphingosine.
# [3] = test system: protein kinase-C; details: cited from earlier work
# [4] = test system: mouse CTLL-2 cells; test: CTLL-2 cell proliferation (thymidine incorporation); assay type: cell-based; details: FIG. 10
# Procedure: FIG. 10 depicts the effect of sphingosine derivatives on mouse T-cell line CTLL. Each point is the mean of three replicates. In the figure DMS represents N,N-dimethylsphingosine and TMS represents N,N,N-trimethylsphingosine.
# For example, mouse CTLL-2 cells (ATCC No. TIB 214), a T lymphocyte cell line, were plated at 1.5×10^4 cells per well and exposed to test substances. Cell proliferation was monitored by thymidine incorporation.
# [5] = test system: 40 kD platelet protein; test: thrombin-induced phosphorylation of 40 kD platelet protein; assay type: cell-based, human; details: thrombin stimulation, FIG. 9
# Procedure: FIG. 9 depicts the inhibition of γ-thrombin-induced phosphorylation of 40 kD protein of human platelets by sphingosine and TMS. Human platelets (3×10^5 /μl) were prelabeled with ^32 p-phosphoric acid (0.2 mCi/ml) in Tyrode's buffer containing 22 mM trisodium citrate, 1 mg/ml glucose and 3.5 mg/ml bovine serum albumin (pH 6.5) for 75 minutes at 37° C. After centrifugation (600× g, 10 minutes), the platelets were resuspended in Tyrode's buffer (pH 7.2), aliquoted in plastic tubes and pre-incubated at 37° C. for 5 minutes with various concentrations of sphingosine and its derivatives (added as 50% ethanol solutions with a final ethanol concentration of 0.5%). Platelets then were stimulated with thrombin […]. The reactions were stopped after 30 seconds by the addition of 5× sample buffer, the samples were boiled and loaded onto 10% SDS-polyacrylamide gels. The proteins were separated electrophotectically. Lane 1-control without stimulation by thrombin; Lane 2-stimulation by 1 μU/ml of γ-thrombin; Lane 3-stimulated by thrombin but added with 1 μM TMS; Lane 4-stimulated by thrombin but added with 10 μM TMS; Lane 5-stimulated by thrombin but added with 20 μM TMS; Lane 6-stimulated by thrombin but added with 30 μM TMS; Lane 7-stimulated by thrombin but added with 20 μM sphingosine; Lane 8-stimulated by thrombin but included addition of 20 μM N,N-dimethylsphingosine.
# [6] = test system: protein kinase-C; test: protein kinase-C activity (A431 cell PK-C, liposome method, histone III-S or myelin basic protein); assay type: biochemical, human; details: histone III-S and myelin basic protein substrates, FIG. 4
# Description: FIGS. 4A and 4B depict the effect of sphingosine derivatives on protein kinase-C activity in A431 cells. The standard liposome method of Kraft and Anderson (Nature 301, 621, 1983) was used. […] In FIG. 4B radioactive incorporation into histone III-s is depicted on the ordinate. In both panels SP represents sphingosine, MMS represents N-monomethylsphingosine, DMS represents N,N-dimethylsphingosineand TMS represents N,N,N-trimethylsphingosine.
# In another in vitro assay, the influence of various compounds on PK-C activity can be monitored. Certain tumor cells present high levels of PK-C activity. The human epidermoid carcinoma cell line A-431 (ATCC No. CRL 1555) can be used in a bioassay for PK-C activity as described in Igarashi et al. (supra). Briefly, phosphatidylserine (5 μg/tube) and 1,2-diolein (0.05 μg/tube), with or without an appropriate quantity of a sphingosine derivative sample, are added in an organic solvent, ethanol or ethanol/chloroform, to a 1.5 ml tube (Sarstedt) and the mixture is evaporated under a N2 stream. The lipid mixture is sonicated in about 30 μl of 20 mM Tris-HCl (pH 7.5) for 30 minutes. The resulting liposomes are supplemented with a buffer mixture comprising 25 mM Tris-HCl (pH 7.5), 10 mM MgCl2, 400 μM EDTA, 50 μM EGTA, 500 μM CaCl2, 200 μg/ml histone III-S or myelin basic protein and 20 μM γ[^32 P]-ATP (2×10^6 cpm) to a final volume of about 90 μl. […]
# [7] = test system: erythrocytes; test: erythrocyte metabolic activity under blood storage conditions; assay type: cell-based; details: in vitro, normal blood storage conditions
# Description: Similar results can be expected for leukocytes and platelets.
# [8] = chloride salts and slightly acidic pH
compound,measurement,setting,value
"CCCCCCCCCCCCC/C=C/[C@@H](O)[C@H](CO)N(C)C [DMS, (4E)-N,N-dimethyl-D-erythro-sphingosine]",inhibition of thrombin- or ADP-induced platelet aggregation,"[1]; thrombin or ADP, compared with TMS",did not inhibit thrombin- or ADP-induced platelet aggregation as well as did TMS
same,water solubility,[2]; [8],soluble in water
same,appearance of aqueous solution,[2],tend to form opaque suspensions
same,water solubility,[2]; particularly at physiologic pH,less water soluble
"CCCCCCCCCCCCC/C=C/[C@@H](O)[C@@H](N)CO [SPN, sphingosine]",PK-C inhibition,"[3]; below 100 μM, Igarashi et al.",did not inhibit PK-C
same,water solubility,[2]; [8],soluble in water
same,appearance of aqueous solution,[2],tend to form opaque suspensions
same,water solubility,[2]; particularly at physiologic pH,less water soluble
"CCCCCCCCCCCCC/C=C/[C@@H](O)[C@H](CO)[N+](C)(C)C [TMS, N,N,N-trimethylsphingosine]",suppression of CTLL-2 cell growth,[4],effective in suppressing CTLL-2 cell growth
same,inhibition of phosphorylation of the 40 kD platelet protein,[5],inhibits phosphorylation of the 40 kD platelet protein
same,inhibition of ATP secretion associated with platelet aggregation,[1],inhibited strongly
same,inhibition of platelet aggregation,[1],inhibited strongly; also recorded: inhibited platelet aggregation in a dose-responsive fashion
same,ristocetin-induced platelet aggregation following incubation,[1]; exclusion of cytotoxicity on platelets,normal ristocetin-induced aggregation
same,solubility in aqueous solvents,[2],excellent solubility
same,solubility,"[2]; acidic, neutral or basic conditions","stable, clear solutions"
same,water solubility,[2]; particularly at physiologic pH,highly water soluble
same,ability to inhibit PK-C,[6],superior to the other compounds
same,erythrocyte metabolic activity,[7],retards erythrocyte metabolic activity
Calphostin C,concentration reported to inhibit protein kinase-C,"[3]; in vitro, Tamaoki & Nakano",0.05 µM

# From patent publication US5466716A, “Liposomal trimethylsphingosine” (The Biomembrane Institute, priority 1994, dated 1995)
